Experiment [1] concerns Foxp3+CD25+ iTreg cells. The experiment in a line: Mreg co-culture with naïve CD4+ T cells in lidded FACS tubes, iTreg analysis by flow cytometry. The settings on record: tacrolimus 1 nM to 10 μM during co-culture; n=3 donors; FIG. 1. It is filed as cell-based, human. As for the experimental part:
(§1) A preparation of human Mregs (“Mreg B”) was prepared in 75 cm^2 flasks according to a modified protocol of Hutchinson. Peripheral blood mononuclear cells (PBMC) were obtained from a healthy donor for use as starting material for Mreg generation. The donor was screened for relevant disease markers, including infectious diseases, not more than 30 days prior to collection of PBMC. The donor was re-screened for the same disease markers on the day of leucocyte donation. PBMC were obtained by leukapheresis using the Spectra Optia® device. Human Mregs can also be generated from leukapheresates collected with alternative devices or from whole blood samples. PBMC from leukapheresis products were further purified by Ficoll-gradient centrifugation. CD14^+ monocytes were isolated from Ficoll-separated, washed PBMC by positive magnetic bead selection using research-grade CD14 microbeads (Miltenyi Biotec, GmbH) in accordance with the manufacturer's instructions. The preparation of isolated monocytes was quality-controlled for viability and purity of CD14^+ cells and contamination with CD3^+ T cells by flow cytometry. Isolated monocytes were resuspended in Mreg culture medium at a density of 7.5×10^5 viable monocytes/ml then plated in Cell+T75 flasks (Sarstedt) at 2×10^5 viable monocytes/cm^2 in a total volume of 20 ml medium. […]
On the technique in general: A flow cytometer gives signals particle by particle.

Experiment [2] has as its system Foxp3+CD25+ iTreg cells. The experiment in a line: Mreg-induced iTreg assay: Mreg co-culture with allogeneic CD3+ T cells in 96 well plates. It is filed as cell-based. As to conditions: recombinant human IFN-γ 0-100 ng/ml during co-culture; n=8 donors; p<0.0001; FIG. 6. How it is done:
as §1

Entries after “also recorded” stand apart in the source; their conditions may differ.

As to `C=CC[C@@H]1/C=C(\C)C[C@H](C)C[C@H](OC)[C@H]2O[C@@](O)(C(=O)C(=O)N3CCCC[C@H]3C(=O)O[C@H](/C(C)=C/[C@@H]3CC[C@@H](O)[C@H](OC)C3)[C@H](C)[C@@H](O)CC1=O)[C@H](C)C[C@@H]2OC` [tacrolimus], the “Mreg-mediated iTreg generation (Foxp3+CD25+ iTreg cells)” value in experiment [1] is “inhibited the formation of Foxp3+CD25+ iTreg cells in a dose-dependent manner; also recorded: potently suppressed iTreg generation in a dose-dependent manner”.

B1: IFN-γ: recombinant human interferon gamma added to Mreg-T cell co-cultures (protein, UniProt P01579 24-161, looked up)
Interferon gamma: QDPYVKEAENLKKYFNAGHSDVADNGTLFLGILKNWKEESDRKIMQSQIVSFYFKLFKNFKDDQSIQKSVETIKEDMNVKFFNSNKKKRDDFEKLTNYSVTDLNVQRKAIHELIQVMAELSPAAKTGKRKRSQMLFRG
B1: in experiment [2], the “iTreg generation versus IFN-γ concentration in the co-culture phase (linear regression)” value is on record as “significant dose-dependent relationship”.

(Values after patent publication US20200292529A1, “NEW DRUG SCREENING ASSAY USING REGULATORY MACROPHAGES” (Universität Regensburg, priority 2017, published 2020).)
